Assay results from patent publication US11834458B2, “Anti-cancer nuclear hormone receptor-targeting compounds” (Nuvation Bio Inc., priority 2021, dated 2023).
Like-named read-outs stand apart in the source and are kept apart here.

Legend:
22Rv1 cells = assay: Cell viability assay, 22Rv1; format: cell-based; settings: Homo sapiens
Procedure: (§1) Cell viability assay: LNCap, 22Rv1, MCF7, MDAMB361, T47D, and IEC6 cells are seeded at a density of 500-2000 cells/well in 96 well plates, and a ‘T0’ (timepoint 0) was included along with the assay plate. The plates are then incubated at 37° C., 5% CO2 in a cell culture incubator overnight. On the next day, the ‘T0’ plate was assayed using CellTiterGlo (Promega, Inc) according to the manufacturer's instructions. The appropriate compounds are diluted in DMSO and added to the assay plate (final DMSO concentration of 0.1-0.2%) on the next day. The assay plates are incubated for 6 days at 37° C., 5% CO2. After the incubation period, the plates are assayed using CellTiterGlo (Promega, Inc) according to the manufacturer's instructions and luminescence was read on the EnVision plate reader. Inhibition of the tested compounds was determined by the following formula: Inhibition rate (%)=(1−(RLU compound−RLU day0)/(RLU control−RLU day0))*100%. GraphPadPrism was used to analyze the data and determine GI50/IC50 values.

LNCap cells = assay: Cell viability assay, LNCap; format: cell-based; settings: Homo sapiens, 144 h
Procedure: as §1

AR = AR (Homo sapiens (Human), UniProt P10275, T878A); assay: AR binding assay
Procedure: AR binding assay: To assess AR binding, test compound (top dose 10 μM, 4 fold serial dilution, 8 point dose response) and control (progesterone) were transferred to the assay plate. Cytosol from LnCaP cells was added to the plate, followed by addition of radiolabeled ^3H-R1881 at a final concentration of 1 nM. The plate was sealed, and the reaction was incubated at 300 rpm at 4° C. for 24 hrs. Radioligand absorption buffer (10 mM Tris-HCl, pH 7.4; 1.5 mM EDTA; 1 mM DTT; 0.25% charcoal; 0.0025% dextran) was then added to the plate, mixed, and incubated at 4° C. for 15 minutes. The plate was then centrifuged at 3000 rpm for 30 minutes at 4° C. The supernatant was transferred to the scint-tube and Tri-carb was used for scintillation counting. The data was analyzed using GraphPadPrism v5.0 and binding IC50 was determined as the concentration where 50% inhibition of radioligand binding was observed.

[1] = biological target: full-length androgen receptor (Homo sapiens (Human), UniProt P10275); assay: AR antagonism assay; format: cell-based
Procedure: AR antagonism assay: To evaluate AR antagonist activity, test compound was added to the assay plate (top dose 10 μM, 3 fold serial dilution, 10 point dose response). HEK293 cells stably expressing the full-length androgen receptor were seeded at a density of 20,000 cells/well in the assay plate. The assay plate was then incubated at room temperature for 10 minutes and at 37° C., 5% CO2 for 20 minutes. Testosterone was added to the assay plate at 1 nM final concentration and the assay plate incubated at 37° C., 5% CO2 for 20 h. After the incubation period, Steady-glo was added to the assay plate and mixed at room temperature for 20 minutes on an orbital shaker, before reading out on the EnVision plate reader.

IEC6 cells = assay: Cell viability assay, IEC6; format: cell-based; settings: Rattus norvegicus
Procedure: as §1

T47D cells = assay: Cell viability assay, T47D; format: cell-based; settings: Homo sapiens, T47D, 144 h, read-out: T47D (GI50, nM)
Procedure: as §1

MCF7 cells = assay: Cell viability assay, MCF7; format: cell-based; settings: Homo sapiens, MCF7, 144 h, read-out: MCF7 (GI50, nM)
Procedure: as §1

MDAMB361 cells = assay: Cell viability assay, MDAMB361; format: cell-based; settings: Homo sapiens, MDA-MB-361, 144 h, read-out: MDA-MB-361 (GI50, nM)
Procedure: as §1

[2] = 22Rv1, 144 h, read-out: 22RV1 (GI50, nM)
[3] = LNCaP, read-out: LNCap (GI50, nM)
[4] = HEK293 cells stably expressing full-length androgen receptor, testosterone 1 nM, 20 h, read-out: AR antagonism
[5] = IEC-6, 144 h, read-out: IEC-6 (IC50, nM)
[6] = 144 h, 22RV1 cells, 6 days, CellTiterGlo, read-out: 22RV1 (GI50)
[7] = LNCap cells, 6 days, CellTiterGlo, read-out: LNCap (GI50)
[8] = cytosol from LnCaP cells, 3H-R1881 1 nM, 4° C. 24 hrs, read-out: AR binding
[9] = 144 h, IEC-6 cells, 6 days, CellTiterGlo, read-out: IEC-6 (IC50)

Chain of AR (P10275 whole entry T878A): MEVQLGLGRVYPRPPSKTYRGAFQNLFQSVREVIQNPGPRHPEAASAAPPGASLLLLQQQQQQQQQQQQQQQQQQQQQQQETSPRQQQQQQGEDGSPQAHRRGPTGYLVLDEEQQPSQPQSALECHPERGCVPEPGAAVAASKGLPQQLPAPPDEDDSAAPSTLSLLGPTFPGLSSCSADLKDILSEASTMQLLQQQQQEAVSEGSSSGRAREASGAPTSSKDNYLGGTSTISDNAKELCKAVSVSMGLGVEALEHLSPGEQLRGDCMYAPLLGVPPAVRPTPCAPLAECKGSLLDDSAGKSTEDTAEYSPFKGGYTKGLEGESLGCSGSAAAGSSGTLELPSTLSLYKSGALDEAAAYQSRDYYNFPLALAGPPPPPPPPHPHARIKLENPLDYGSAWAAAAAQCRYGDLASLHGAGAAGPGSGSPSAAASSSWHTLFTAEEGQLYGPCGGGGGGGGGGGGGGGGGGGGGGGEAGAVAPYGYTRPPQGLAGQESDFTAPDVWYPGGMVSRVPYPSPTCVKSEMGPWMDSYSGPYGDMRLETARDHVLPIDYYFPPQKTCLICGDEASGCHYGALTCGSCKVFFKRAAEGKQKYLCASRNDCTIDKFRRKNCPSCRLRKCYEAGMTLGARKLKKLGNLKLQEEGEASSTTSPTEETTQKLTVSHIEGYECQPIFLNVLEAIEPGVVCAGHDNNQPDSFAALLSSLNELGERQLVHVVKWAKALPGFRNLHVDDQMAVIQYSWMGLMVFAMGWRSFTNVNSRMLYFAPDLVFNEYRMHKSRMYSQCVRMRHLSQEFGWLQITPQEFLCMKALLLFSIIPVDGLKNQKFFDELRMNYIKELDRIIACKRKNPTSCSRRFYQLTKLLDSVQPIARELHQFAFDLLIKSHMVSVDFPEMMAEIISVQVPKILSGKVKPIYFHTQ
Chain of full-length androgen receptor (P10275 whole entry): as the sequence (P10275 whole entry T878A) above, with A878T counted along it

| Structure (SMILES) | GI50 (22Rv1 cells; [2]) [nM] | GI50 (LNCap cells; [3]) [nM] | IC50 (AR) [nM] | IC50 [1, 4] [nM] | IC50 (IEC6 cells; [5]) [nM] | GI50 (22Rv1 cells; [6]) [nM] | GI50 (LNCap cells; [7]) [nM] | IC50 (AR; [8]) [nM] | IC50 [1] [nM] | IC50 (IEC6 cells; [9]) [nM] | GI50 (T47D cells) [nM] | GI50 (MCF7 cells) [nM] | GI50 (MDAMB361 cells) [nM] |
| --- | --- | --- | --- | --- | --- | --- | --- | --- | --- | --- | --- | --- | --- |
| CC[C@@]1(O)C(=O)OCc2c1cc1n(c2=O)Cc2cc3c(CN(C)C)c(OC(=O)N4CCN(CCCCCCO[C@@H]5CC[C@@H]6[C@H]7CC[C@@H]8CC(=O)CC[C@@]8(C)[C@@H]7CC[C@]65C)CC4)ccc3nc2-1 [Compound 8, (S)-10-((Dimethylamino)methyl)-4-ethyl-4-hydroxy-3,14-dioxo-3,4,12,14-tetrahydro-1H-pyrano[3′,4′:6,7]indolizino[1,2-b]quinolin-9-yl 4-(6-(((5R,8S,9R,10R,13R,14R,17R)-10,13-dimethyl-3-oxohexadecahydro-1H-cyclopenta[a]phenanthren-17-yl)oxy)hexyl)piperazine-1-carboxylate] | 10 to 500 | 10 to 500 | 10 to 500 | > 1000 | > 1000 |  |  |  |  |  |  |  |  |
| CC[C@@]1(O)C(=O)OCc2c1cc1n(c2=O)Cc2cc3c(CN4CCN(CC5CCN(c6ccc(C(=O)N[C@H]7CC[C@H](Oc8ccc(C#N)c(Cl)c8)CC7)nn6)CC5)CC4)c(O)ccc3nc2-1 [Compound 11, N-((1r,4r)-4-(3-Chloro-4-cyanophenoxy)cyclohexyl)-6-(4-((4-(((S)-4-ethyl-4,9-dihydroxy-3,14-dioxo-3,4,12,14-tetrahydro-1H-pyrano[3′,4′:6,7]indolizino[1,2-b]quinolin-10-yl)methyl)piperazin-1-yl)methyl)piperidin-1-yl)pyridazine-3-carboxamide] |  |  |  |  |  | 10 to 500 | 10 to 500 | 10 to 500 | 10 to 500 | 501 to 1000 |  |  |  |
| CC[C@@]1(O)C(=O)OCc2c1cc1n(c2=O)Cc2cc3c(CN4CCN(C(=O)CCCCCOc5ccc(C(=O)N[C@H]6CC[C@H](Oc7ccc(C#N)c(Cl)c7)CC6)cc5)CC4)c(O)ccc3nc2-1 [Compound 12, N-((1r,4r)-4-(3-Chloro-4-cyanophenoxy)cyclohexyl)-4-((6-(4-(((S)-4-ethyl-4,9-dihydroxy-3,14-dioxo-3,4,12,14-tetrahydro-1H-pyrano[3′,4′:6,7]indolizino[1,2-b]quinolin-10-yl)methyl)piperazin-1-yl)-6-oxohexyl)oxy)benzamide] |  |  |  |  |  | 501 to 1000 | 10 to 500 | > 1000 | 10 to 500 | > 1000 |  |  |  |
| CC[C@@]1(O)C(=O)OCc2c1cc1n(c2=O)Cc2cc3c(CN4CCN(C(=O)C5CCN(c6ccc(C(=O)N[C@H]7CC[C@H](Oc8ccc(C#N)c(Cl)c8)CC7)nn6)CC5)CC4)c(O)ccc3nc2-1 [Compound 14, N-((1r,4r)-4-(3-Chloro-4-cyanophenoxy)cyclohexyl)-6-(4-(4-(((S)-4-ethyl-4,9-dihydroxy-3,14-dioxo-3,4,12,14-tetrahydro-1H-pyrano[3′,4′:6,7]indolizino[1,2-b]quinolin-10-yl)methyl)piperazine-1-carbonyl)piperidin-1-yl)pyridazine-3-carboxamide] |  |  |  |  |  | 10 to 500 | 10 to 500 | 10 to 500 | 10 to 500 | > 1000 |  |  |  |
| CC[C@@]1(O)C(=O)OCc2c1cc1n(c2=O)Cc2cc3c(CN(C)C)c(OC(=O)N4[C@H](C)CN(CCCCCCN(C)c5ccc([C@H]6C[C@@]7(C)[C@@H](CC[C@]7(OC(C)=O)C(C)=O)[C@@H]7CCC8=CC(=O)CCC8=C76)cc5)C[C@H]4C)ccc3nc2-1 [Compound 16, (S)-10-((Dimethylamino)methyl)-4-ethyl-4-hydroxy-3,14-dioxo-3,4,12,14-tetrahydro-1H-pyrano[3′,4′:6,7]indolizino[1,2-b]quinolin-9-yl (2R,6R)-4-(6-((4-((8S,11R,13S,14S,17R)-17-acetoxy-17-acetyl-13-methyl-3-oxo-2,3,6,7,8,11,12,13,14,15,16,17-dodecahydro-1H-cyclopenta[a]phenanthren-11-yl)phenyl)(methyl)amino)hexyl)-2,6-dimethylpiperazine-1-carboxylate] |  | 501 to 1000 |  |  | > 1000 |  |  |  |  |  | 10 to 500 | 10 to 500 | > 1000 |
| CC[C@@]1(O)C(=O)OCc2c1cc1n(c2=O)Cc2cc3c(COC(C)(C)C)c(OC(=O)N4CCN(CCCCCCN(C)c5ccc([C@H]6C[C@@]7(C)[C@@H](CC[C@]7(OC(C)=O)C(C)=O)[C@@H]7CCC8=CC(=O)CCC8=C76)cc5)CC4)ccc3nc2-1 [Compound 17, (S)-10-(tert-Butoxymethyl)-4-ethyl-4-hydroxy-3,14-dioxo-3,4,12,14-tetrahydro-1H-pyrano[3′,4′:6,7]indolizino[1,2-b]quinolin-9-yl 4-(6-((4-((8S,11R,13S,14S,17R)-17-acetoxy-17-acetyl-13-methyl-3-oxo-2,3,6,7,8,11,12,13,14,15,16,17-dodecahydro-1H-cyclopenta[a]phenanthren-11-yl)phenyl)(methyl)amino)hexyl)piperazine-1-carboxylate] |  | > 1000 |  |  | > 1000 |  |  |  |  |  | > 1000 | > 1000 | > 1000 |
| CC[C@@]1(O)C(=O)OCc2c1cc1n(c2=O)Cc2cc3c(CN4CCC(N(C)C(=O)CO[C@H]5CC[C@H]6[C@@H]7CC[C@H]8CC(=O)CC[C@]8(C)[C@H]7CC[C@]56C)CC4)c(O)ccc3nc2-1 [Compound 18, 2-(((5S,8R,9S,10S,13S,14S,17S)-10,13-Dimethyl-3-oxohexadecahydro-1H-cyclopenta[a]phenanthren-17-yl)oxy)-N-(1-(((S)-4-ethyl-4,9-dihydroxy-3,14-dioxo-3,4,12,14-tetrahydro-1H-pyrano[3′,4′:6,7]indolizino[1,2-b]quinolin-10-yl)methyl)piperidin-4-yl)-N-methylacetamide] |  |  |  |  |  | 10 to 500 | 10 to 500 | 10 to 500 | > 1000 | > 1000 |  |  |  |
| CC[C@@]1(O)C(=O)OCc2c1cc1n(c2=O)Cc2cc3c(CN(C)C)c(OC(=O)N4CCC(N(C)C(=O)CO[C@H]5CC[C@H]6[C@@H]7CC[C@H]8CC(=O)CC[C@]8(C)[C@H]7CC[C@]56C)CC4)ccc3nc2-1 [Compound 20, (S)-10-((Dimethylamino)methyl)-4-ethyl-4-hydroxy-3,14-dioxo-3,4,12,14-tetrahydro-1H-pyrano[3′,4′:6,7]indolizino[1,2-b]quinolin-9-yl 4-(2-(((5S,8R,9S,10S,13S,14S,17S)-10,13-dimethyl-3-oxohexadecahydro-1H-cyclopenta[a]phenanthren-17-yl)oxy)-N-methylacetamido)piperidine-1-carboxylate] | 10 to 500 | 10 to 500 | 10 to 500 | > 1000 | > 1000 |  |  |  |  |  |  |  |  |
| CC[C@@]1(O)C(=O)OCc2c1cc1n(c2=O)Cc2cc3c(CN(C)C)c(OC(=O)N(C)C4CCN(C(=O)CO[C@H]5CC[C@H]6[C@@H]7CC[C@H]8CC(=O)CC[C@]8(C)[C@H]7CC[C@]56C)CC4)ccc3nc2-1 [Compound 21, (S)-10-((Dimethylamino)methyl)-4-ethyl-4-hydroxy-3,14-dioxo-3,4,12,14-tetrahydro-1H-pyrano[3′,4′:6,7]indolizino[1,2-b]quinolin-9-yl (1-(2-(((5S,8R,9S,10S,13S,14S,17S)-10,13-dimethyl-3-oxohexadecahydro-1H-cyclopenta[a]phenanthren-17-yl)oxy)acetyl)piperidin-4-yl)(methyl)carbamate] | 10 to 500 | 10 to 500 | 10 to 500 | > 1000 | > 1000 |  |  |  |  |  |  |  |  |
